According to patent publication US11884906B1, “4D-perfused tumoroid-on-a-chip platform for personalized cancer treatment applications” (University of South Florida, priority 2019, dated 2024):

How the values were obtained:
HT29 tumoroid cells = experiment: Drug response of HT29 tumoroids on FiSS, CELLTITER-GLO viability, platform 10 (Chip) vs static system (Control); type: cell-based; details: 48 hours drug treatment, microfluidic platform 10 (Chip) compared with static system (Control), FIGS. 14A-14C
Method: (§1) FIG. 6 depicts the results of experiments performed on platform 10 described in detail above. In a first step, microfluidic channel layer 14 is cleaned and a scaffold to be grown on platform 10 is washed. Either 3000 cells of HT29, 2000 cells of HCT116, of 3500 cells of LLC are seeded in 100 μL of a culture media 30. After 48 hours, an additional 100 μl of the culture media 30 is added to inlet well 20, and an additional 50 μL of the culture media is added to culture well 21, with no fresh media added to outlet well 22. Approximately 48 hours after the additional media is added, a drug response test is performed. All the culture media 30 is removed from culture well 21, and 300 μL of a drug dissolved media is added to culture well 21 at the control plate. […]
(§2) A test, such as a CELLTITER-GLO® test, is performed 48 hours later to quantify the viable cells in the culture. […] Cell viability was determined using a CELLTITER-GLO® assay (Promega) according to the manufacturer's protocol. Luminescence was measured in a white well-plate in a Bio-Tek Synergy H4 plate reader (BioTek). An average luminescence value for each group was plotted as a percentage of the control group. […]

HCT116 tumoroid cells = experiment: Drug response of HCT116 tumoroids on FiSS, CELLTITER-GLO viability, platform 10 (Chip) vs static system (Control); type: cell-based; details: 48 hours drug treatment, microfluidic platform 10 (Chip) compared with static system (Control), FIGS. 15A-15C
Method: as §1, §2

SMILES	drug dose required on platform 10 to have the same IC50 as the static systems (HT29 tumoroid cells)	drug dose required on platform 10 to have the same IC50 as the static systems (HCT116 tumoroid cells)
O=C1[O][Pt]2([NH][C@@H]3CCCC[C@H]3[NH]2)[O]C1=O [oxaliplatin]	higher drug dose	higher drug dose
O=c1[nH]cc(F)c(=O)[nH]1 [fluorouracil]	higher drug dose	lower drug dose
